No end group written: not given here.
What was measured:
herpes viruses = assay: Antiviral activity of synthetic Herp versions (13, 10 and 5 amino acids); format: cell-based; settings: synthetic versions of Herp compared
Procedure: ID. […] The sequencing and synthesizing was contracted out to the Protein Core Laboratory of Baylor College of Medicine, Houston, Tex.
Infectivity Inhibition of HSV-1 and HSV-2 Viruses by Synthetic Herp: For comparison, Herpoxin and the synthetic Herps were tested in Vero cell cultures infected with HSV-1 or HSV-2 viruses. The cells were infected in serial concentrations from 10^2 to 10^8. Three wells were used for each concentration. After absorption of the virus the cultures were divided into three groups. Group one received medium containing PBS as a […] control, group two received medium containing 10 μg/ml of Herpoxin (natural Herp) and in the remaining group the medium was incorporated with 10 μg/ml synthetic Herp (Syn-Herp-10 amino acid (AA) version). The tests were read after six days and TCID/50 were calculated from CPE.

uninfected cells = settings: up to 200 μg/ml

| Substance | antiviral activity / inhibition of herpes viruses (herpes viruses) | effect on the respective uninfected cells (uninfected cells) |
| --- | --- | --- |
| Asn-Leu-Tyr-Gln-Phe (NLYQF; SYNTHESIZED. CORRESPONDS TO POSITIONS 1-5 OF SEQ. ID. NO. 1.) [SEQ. ID. NO. 3, synthetic Herp of 5 amino acids from the N-terminal] | good results | – |
| NLYQFKNMIQ [Syn Herp, Asn-Leu-Tyr-Gln-Phe-Lys-Asn-Met-Ile-Gln] | – | no effect |
| NLYQFKNMIQQFL [SEQ. ID. NO. 1] | good results | – |

Source: patent publication US7399825B2, “Synthetic peptide, inhibitor to DNA viruses” (priority 2003, dated 2008)
